Experimental data taken from US20060111305A1, “Metabolites of certain [1,4]diazepino[6,7,1-ij]quinoline derivatives and methods of preparation and use thereof” (Wyeth, priority 2004, published 2006).
Read-outs that look alike come from different tables or passages of the source.

Experiments:
[1] = Dog plasma metabolite profiles after single 15 mg/kg oral capsule of [14C]DCDQ; format: in vivo, beagle dogs
Method: (§1) For plasma profiles, a TopCount NXT radiometric microplate reader (Perkin Elmer) was used to analyze the radioactivity in collected HPLC fractions. The limit of detection by TopCount was about 1 ng equivalent/mL. A Flo-One β Model A525 radioactivity detector (Perkin Elmer) with a 250 μL LQTR flow cell was used to acquire data for urine and fecal samples. The flow rate of Ultima Flow M scintillation fluid was 1 mL/min, providing a mixing ratio of scintillation cocktail to mobile phase of 5:1. The limits of detection by Flo-One detector were about 200 ng equivalents/mL for urine and 12 ng equivalents/g for feces.
Plasma samples were analyzed for metabolite profiles by HPLC. Aliquots of plasma were mixed with two volumes of cold methanol containing 0.1% trifluoroacetic acid (TFA), placed on ice for about 2 minutes and then centrifuged. The supernatant fluid was transferred to a clean tube and evaporated at 22° C. under nitrogen in a Zymark TurboVap LV (Caliper Life Sciences, Hopkinton, Mass.) to a volume of about 0.3 mL. The residue was centrifuged, the supernatant volume measured and extraction efficiency determined by analysis of duplicate 20 μL aliquots for radioactivity. A 200 μL aliquot of the supernatant was injected onto the HPLC column and the effluent was collected at 20 second intervals into 96-well Lumaplates (Perkin Elmer). The plates were dried overnight in an oven at 40° C. and analyzed by a TopCount. Plasma extracts were also analyzed by LC/MS.
(§2) A Waters model 2690 HPLC system (Waters Corp., Milford, Mass.) with a built-in autosampler was used for analysis. Separations were accomplished on a Phenomenex Luna C18(2) column (150×2.0 mm, 5 μm) (Phenomenex, Torrance, Calif.). The sample chamber of the autosampler was maintained at 4° C., while the column was at ambient temperature of about 20° C. A variable wavelength UV detector set to monitor 250 nm and a Flo-One β Model A525 radioactivity detector were used for data acquisition. The HPLC mobile phase consisted of 10 mM ammonium acetate, pH 4.5 (A) and acetonitrile (B), and was delivered at 0.2 mL/min. Chromatographic condition A was used for dose analysis, while condition B was used for analysis of urine and plasma, brain and fecal extracts.

[2] = Dog urinary excretion and metabolite profiles after oral capsule of [14C]DCDQ; format: in vivo, beagle dogs
Method: Blood samples were collected from the jugular vein at 2, 4, 8, 24 and 48 hour after dose administration into tubes containing potassium EDTA as the anticoagulant and then placed on ice. Aliquots of 50 μL were removed for combustion and determination of radioactivity content. Plasma was immediately obtained from the remaining blood by centrifugation at 4° C. Urine samples were collected into tubes on dry ice at intervals of 0-8, 8-24 and 24-48 hour post-dose. Fecal samples were collected at intervals of 0-8, 8-24 and 24-48 hour post-dose at room temperature, and were homogenized. The biological specimens were stored at approximately −70° C. until analysis.
as §1
Urine was analyzed for radioactivity concentration and analyzed by HPLC with radioactivity flow detection for metabolite profiles by direct injection to the HPLC column. LC/MS analyses for metabolite identification were also carried out with urine samples.
as §2

[3] = Incubation of [14C]DCDQ with dog liver microsomes; format: in vitro ADME, beagle dogs
Method: [^14C]DCDQ was mixed with non-radiolabeled DCDQ (1:3 or 1:5) in the incubations. Microsomal incubations consisted of [^14C]DCDQ, magnesium chloride (10 mM) and liver microsomes incubated in 0.5 mL of 0.1 M potassium phosphate buffer, pH 7.4. [^14C]DCDQ (20 μL) in water was added to the incubation tubes containing buffer, magnesium chloride solution and microsomes. After mixing, the tubes were pre-incubated for 2 minutes in a shaking water bath at 37° C. The reactions were initiated by the addition of UDPGA or the NADPH regenerating system. UDPGA was added to incubations as a 50 μL aliquot of a 20 mM solution in water, to give a final concentration of 2 mM. An NADPH regenerating system (30 μL) was added to incubations to evaluate CYP450-mediated metabolism. The NADPH regenerating system consisted of glucose-6-phosphate (2 mg/mL), glucose-6-phosphate dehydrogenase (0.8 units/mL) and NADP^+ (2 mg/mL). Control incubations were conducted under the same conditions, but without the NADPH generating system, UDPGA or microsomes. All incubations were performed in duplicate. Incubations were stopped by the addition of 0.5 mL ice-cold methanol. Samples were vortex-mixed. Denatured proteins were separated by centrifugation at 4300 rpm and 4° C. for 10 minutes (Model T21 super centrifuge, Sorvall). The protein pellets were extracted with 0.5 mL of methanol. The supernatant was combined for each sample, mixed and evaporated to a volume of about 0.3 mL under a nitrogen stream in a Zymark TurboVap LV evaporator (Caliper Life Science, Hopkinton, Mass.). The concentrated sample was centrifuged and aliquots were radioassayed and analyzed by HPLC. This method recovered an average of 92.1% of the radioactivity from the reaction mixture.
To evaluate species differences in cytochrome P450- and UGT-mediated metabolism, [^14C]DCDQ was incubated for 20 minutes with 0.5 mg/mL liver microsomal proteins from mice, rats, dogs or humans in the presence of the NADPH regenerating system or UDPGA. The assay conditions were the same as described above, and DCDQ concentrations were 12 μM and 56 μM for cytochrome P450- and UGT-mediated metabolism, respectively.
A Waters model 2690 HPLC system (Waters Corp., Milford, Mass.) with a built-in autosampler was used for analysis. Separations were accomplished on a Phenomenex Luna C18(2) column (2×150 mm, 5 μm) (Phenomenex, Torrance, Calif.) coupled with a filter (4×2 mm) cartridge. A variable wavelength UV detector set to monitor 250 nm and Flo-One β Model A525 radioactivity flow detector (Perkin Elmer) with a 250 μL LQTR flow cell were used for data acquisition. The flow rate of Ultima Flow M scintillation fluid was 1 mL/min, providing a mixing ratio of scintillation cocktail to mobile phase of 5:1. […]

[4] = male, beagle, dog, plasma, oral, 15 mg/kg, 2 hr, dog 2, read-out: Estimated plasma concentration in dogs
[5] = male, beagle, dog, plasma, oral, 15 mg/kg, 4 hr, dog 2, read-out: Estimated plasma concentration in dogs
[6] = male, beagle, dog, plasma, oral, 15 mg/kg, 8 hr, dog 1, read-out: Estimated plasma concentration in dogs
[7] = 0-8 hr, dog no. not printed (dog 1 by footnote a)

Row | SMILES | Chromatographic distribution of radioactivity in dog plasma ([1]; 2 hr, dog 2) [%] | Chromatographic distribution of radioactivity in dog plasma ([1]; 4 hr, dog 2) [%] | Chromatographic distribution of radioactivity in dog plasma ([1]; 8 hr, dog 1) [%] | Estimated plasma concentration in dogs ([1]; 8 hr, dog 2) | Estimated plasma concentration in dogs ([1]; 8 hr, dog 3) | Estimated plasma concentration in dogs ([1]; 24 hr, dog 3) | Estimated plasma concentration in dogs ([1]; 48 hr, dog 1) | Estimated plasma concentration in dogs ([1]; 48 hr, dog 3) | concentration at 2 h [1, 4] [ng/mL] | concentration at 4 h [1, 5] [ng/mL] | concentration at 8 h [1, 6] [ng/mL] | Chromatographic distribution of radioactivity in dog urine [2, 7] [%] | Chromatographic distribution of radioactivity in dog urine ([2]; 24-48 hr, dog 1) [%] | Chromatographic distribution of radioactivity in dog urine ([2]; 24-48 hr, dog 2) [%] | also measured
1 | [O-][N+]12CCN=Cc3cccc(c31)[C@H]1CCC[C@H]1C2 (stereo partly shown) [Metabolite M5, DCDQ imine N-oxide] | 2.9 | 5.3 | 4.0 | BQL | BQL | BQL | BQL | BQL | 36.4 | 86.6 | 21.7 | 5.9 | 8.5 | 4.0 | Chromatographic distribution of radioactivity in dog plasma ([1]; 2 hr, dog 1): 12%; Chromatographic distribution of radioactivity in dog plasma ([1]; 4 hr, dog 1): 6.6%; Estimated plasma concentration in dogs ([1]; 24 hr, dog 1): BQL; Estimated plasma concentration in dogs ([1]; 24 hr, dog 2): BQL; Chromatographic distribution of radioactivity in dog plasma ([1]; 48 hr, dog 2): 2.8%; concentration at 2 h ([1]; male, beagle, dog, plasma, oral, 15 mg/kg, 2 hr, dog 1, read-out: Estimated plasma concentration in dogs): 43.1 ng/mL; concentration at 4 h ([1]; male, beagle, dog, plasma, oral, 15 mg/kg, 4 hr, dog 1, read-out: Estimated plasma concentration in dogs): 33.1 ng/mL; concentration at 48 h ([1]; male, beagle, dog, plasma, oral, 15 mg/kg, 48 hr, dog 2, read-out: Estimated plasma concentration in dogs): 18.9 ng/mL; metabolite detected in microsomal incubation ([3]; NADPH regenerating system, 12 μM DCDQ, 20 min): detected
2 | O=C(O)[C@H]1O[C@@H](OC(=O)N2CCN3C[C@@H]4CCC[C@@H]4c4cccc(c43)C2)[C@H](O)[C@@H](O)[C@@H]1O [Metabolite M6, carbamoyl glucuronide of DCDQ] | 19 | 13 | 7.0 | BQL | BQL | BQL | BQL | BQL | 239 | 215 | 37.9 | 13 | 5.8 | 3.5 | Estimated plasma concentration in dogs ([1]; 2 hr, dog 1): BQL; Estimated plasma concentration in dogs ([1]; 4 hr, dog 1): BQL; Chromatographic distribution of radioactivity in dog plasma ([1]; 24 hr, dog 1): 17%; Chromatographic distribution of radioactivity in dog plasma ([1]; 24 hr, dog 2): 5.6%; Estimated plasma concentration in dogs ([1]; 48 hr, dog 2): BQL; concentration at 24 h ([1]; male, beagle, dog, plasma, oral, 15 mg/kg, 24 hr, dog 1, read-out: Estimated plasma concentration in dogs): 258 ng/mL; concentration at 24 h ([1]; male, beagle, dog, plasma, oral, 15 mg/kg, 24 hr, dog 2, read-out: Estimated plasma concentration in dogs): 62.1 ng/mL; Chromatographic distribution of radioactivity in dog urine ([2]; 8-24 hr, Mean): 5.8%; Chromatographic distribution of radioactivity in dog urine ([2]; 8-24 hr, dog 1): 6.1%; Chromatographic distribution of radioactivity in dog urine ([2]; 8-24 hr, dog 2): 7.6%; Chromatographic distribution of radioactivity in dog urine ([2]; 8-24 hr, dog 3): 3.6%; Chromatographic distribution of radioactivity in dog urine ([2]; 24-48 hr, Mean): 4.7%; Chromatographic distribution of radioactivity in dog urine ([2]; 24-48 hr, dog 3): 4.3%; Chromatographic distribution of radioactivity in dog urine ([2]; 24-48 hr, dog 4): 5.9%; metabolite detected in microsomal incubation ([3]; UDPGA, 56 μM DCDQ): detected
